Measured values from ChEMBL document CHEMBL3044736, “Synthesis, characterization, solvatochromic properties, and antimicrobial evaluation of 5-acetyl-2-thioxo-dihydro-pyrimidine-4,6-dione-based chalcones” (2013).
Converted amounts (≈) assume the structure as drawn.

Key:
Format in all cases: functional
Aspergillus clavatus [1] = experiment: Antimicrobial activity against Aspergillus clavatus MTCC 1323 assessed as diameter of growth inhibition zone at 100 ug/ml after 48-96 hr by agar cup diffusion method; conditions: read-out: DIZ
Penicillium [2] = experiment: Antimicrobial activity against Penicillium wild strain assessed as diameter of growth inhibition zone at 250 ug/ml after 48-96 hr by agar cup diffusion method; conditions: read-out: DIZ
Aspergillus clavatus [3] = experiment: Antimicrobial activity against Aspergillus clavatus MTCC 1323 assessed as diameter of growth inhibition zone at 25 ug/ml after 48-96 hr by agar cup diffusion method; conditions: read-out: DIZ
Penicillium [4] = experiment: Antimicrobial activity against Penicillium wild strain assessed as diameter of growth inhibition zone at 25 ug/ml after 48-96 hr by agar cup diffusion method; conditions: read-out: DIZ
Pseudomonas aeruginosa [5] = experiment: Antimicrobial activity against Pseudomonas aeruginosa MTCC 1688 assessed as diameter of growth inhibition zone at 50 ug/ml after 18-24 hr by agar cup diffusion method; conditions: read-out: DIZ
Candida albicans [6] = experiment: Antimicrobial activity against Candida albicans MTCC 227 assessed as diameter of growth inhibition zone at 25 ug/ml after 48-96 hr by agar cup diffusion method; conditions: read-out: DIZ
Streptococcus pyogenes [7] = experiment: Antimicrobial activity against Streptococcus pyogenes MTCC 442 assessed as diameter of growth inhibition zone at 250 ug/ml after 18-24 hr by agar cup diffusion method; conditions: read-out: DIZ
Escherichia coli [8] = experiment: Antimicrobial activity against Escherichia coli MTCC 443 assessed as diameter of growth inhibition zone at 250 ug/ml after 18-24 hr by agar cup diffusion method; conditions: read-out: DIZ
Aspergillus clavatus [9] = experiment: Antimicrobial activity against Aspergillus clavatus MTCC 1323 by agar cup diffusion method
Pseudomonas aeruginosa [10] = experiment: Antimicrobial activity against Pseudomonas aeruginosa MTCC 1688 by agar cup diffusion method
Staphylococcus aureus [11] = experiment: Antimicrobial activity against Staphylococcus aureus MTCC 96 assessed as diameter of growth inhibition zone at 250 ug/ml after 18-24 hr by agar cup diffusion method; conditions: read-out: DIZ
Staphylococcus aureus [12] = experiment: Antimicrobial activity against Staphylococcus aureus MTCC 96 assessed as diameter of growth inhibition zone at 25 ug/ml after 18-24 hr by agar cup diffusion method; conditions: read-out: DIZ
Streptococcus pyogenes [13] = experiment: Antimicrobial activity against Streptococcus pyogenes MTCC 442 assessed as diameter of growth inhibition zone at 100 ug/ml after 18-24 hr by agar cup diffusion method; conditions: read-out: DIZ
Staphylococcus aureus [14] = experiment: Antimicrobial activity against Staphylococcus aureus MTCC 96 assessed as diameter of growth inhibition zone at 50 ug/ml after 18-24 hr by agar cup diffusion method; conditions: read-out: DIZ
Escherichia coli [15] = experiment: Antimicrobial activity against Escherichia coli MTCC 443 assessed as diameter of growth inhibition zone at 25 ug/ml after 18-24 hr by agar cup diffusion method; conditions: read-out: DIZ
Aspergillus clavatus [16] = experiment: Antimicrobial activity against Aspergillus clavatus MTCC 1323 assessed as diameter of growth inhibition zone at 250 ug/ml after 48-96 hr by agar cup diffusion method; conditions: read-out: DIZ
Klebsiella pneumoniae [17] = experiment: Antimicrobial activity against Klebsiella pneumoniae MTCC 109 assessed as diameter of growth inhibition zone at 50 ug/ml after 18-24 hr by agar cup diffusion method; conditions: read-out: DIZ
Trichophyton rubrum [18] = experiment: Antimicrobial activity against Trichophyton rubrum MTCC 296 by agar cup diffusion method
Penicillium [19] = experiment: Antimicrobial activity against Penicillium wild strain assessed as diameter of growth inhibition zone at 50 ug/ml after 48-96 hr by agar cup diffusion method; conditions: read-out: DIZ
Aspergillus clavatus [20] = experiment: Antimicrobial activity against Aspergillus clavatus MTCC 1323 assessed as diameter of growth inhibition zone at 50 ug/ml after 48-96 hr by agar cup diffusion method; conditions: read-out: DIZ
Candida albicans [21] = experiment: Antimicrobial activity against Candida albicans MTCC 227 assessed as diameter of growth inhibition zone at 250 ug/ml after 48-96 hr by agar cup diffusion method; conditions: read-out: DIZ
Escherichia coli [22] = experiment: Antimicrobial activity against Escherichia coli MTCC 443 assessed as diameter of growth inhibition zone at 50 ug/ml after 18-24 hr by agar cup diffusion method; conditions: read-out: DIZ
Klebsiella pneumoniae [23] = experiment: Antimicrobial activity against Klebsiella pneumoniae MTCC 109 assessed as diameter of growth inhibition zone at 250 ug/ml after 18-24 hr by agar cup diffusion method; conditions: read-out: DIZ
Candida albicans [24] = experiment: Antimicrobial activity against Candida albicans MTCC 227 by agar cup diffusion method
Klebsiella pneumoniae [25] = experiment: Antimicrobial activity against Klebsiella pneumoniae MTCC 109 assessed as diameter of growth inhibition zone at 100 ug/ml after 18-24 hr by agar cup diffusion method; conditions: read-out: DIZ
Penicillium [26] = experiment: Antimicrobial activity against Penicillium wild strain assessed as diameter of growth inhibition zone at 100 ug/ml after 48-96 hr by agar cup diffusion method; conditions: read-out: DIZ
Escherichia coli [27] = experiment: Antimicrobial activity against Escherichia coli MTCC 443 by agar cup diffusion method
Trichophyton rubrum [28] = experiment: Antimicrobial activity against Trichophyton rubrum MTCC 296 assessed as diameter of growth inhibition zone at 100 ug/ml after 48-96 hr by agar cup diffusion method; conditions: read-out: DIZ
Klebsiella pneumoniae [29] = experiment: Antimicrobial activity against Klebsiella pneumoniae MTCC 109 by agar cup diffusion method
Staphylococcus aureus [30] = experiment: Antimicrobial activity against Staphylococcus aureus MTCC 96 by agar cup diffusion method
Trichophyton rubrum [31] = experiment: Antimicrobial activity against Trichophyton rubrum MTCC 296 assessed as diameter of growth inhibition zone at 25 ug/ml after 48-96 hr by agar cup diffusion method; conditions: read-out: DIZ
Escherichia coli [32] = experiment: Antimicrobial activity against Escherichia coli MTCC 443 assessed as diameter of growth inhibition zone at 100 ug/ml after 18-24 hr by agar cup diffusion method; conditions: read-out: DIZ
Penicillium [33] = experiment: Antimicrobial activity against Penicillium wild strain by agar cup diffusion method
Streptococcus pyogenes [34] = experiment: Antimicrobial activity against Streptococcus pyogenes MTCC 442 assessed as diameter of growth inhibition zone at 50 ug/ml after 18-24 hr by agar cup diffusion method; conditions: read-out: DIZ
Pseudomonas aeruginosa [35] = experiment: Antimicrobial activity against Pseudomonas aeruginosa MTCC 1688 assessed as diameter of growth inhibition zone at 25 ug/ml after 18-24 hr by agar cup diffusion method; conditions: read-out: DIZ
Klebsiella pneumoniae [36] = experiment: Antimicrobial activity against Klebsiella pneumoniae MTCC 109 assessed as diameter of growth inhibition zone at 25 ug/ml after 18-24 hr by agar cup diffusion method; conditions: read-out: DIZ
Candida albicans [37] = experiment: Antimicrobial activity against Candida albicans MTCC 227 assessed as diameter of growth inhibition zone at 100 ug/ml after 48-96 hr by agar cup diffusion method; conditions: read-out: DIZ
Trichophyton rubrum [38] = experiment: Antimicrobial activity against Trichophyton rubrum MTCC 296 assessed as diameter of growth inhibition zone at 250 ug/ml after 48-96 hr by agar cup diffusion method; conditions: read-out: DIZ
Candida albicans [39] = experiment: Antimicrobial activity against Candida albicans MTCC 227 assessed as diameter of growth inhibition zone at 50 ug/ml after 48-96 hr by agar cup diffusion method; conditions: read-out: DIZ
Streptococcus pyogenes [40] = experiment: Antimicrobial activity against Streptococcus pyogenes MTCC 442 by agar cup diffusion method
Trichophyton rubrum [41] = experiment: Antimicrobial activity against Trichophyton rubrum MTCC 296 assessed as diameter of growth inhibition zone at 50 ug/ml after 48-96 hr by agar cup diffusion method; conditions: read-out: DIZ
Staphylococcus aureus [42] = experiment: Antimicrobial activity against Staphylococcus aureus MTCC 96 assessed as diameter of growth inhibition zone at 100 ug/ml after 18-24 hr by agar cup diffusion method; conditions: read-out: DIZ
Streptococcus pyogenes [43] = experiment: Antimicrobial activity against Streptococcus pyogenes MTCC 442 assessed as diameter of growth inhibition zone at 25 ug/ml after 18-24 hr by agar cup diffusion method; conditions: read-out: DIZ
Pseudomonas aeruginosa [44] = experiment: Antimicrobial activity against Pseudomonas aeruginosa MTCC 1688 assessed as diameter of growth inhibition zone at 250 ug/ml after 18-24 hr by agar cup diffusion method; conditions: read-out: DIZ
Pseudomonas aeruginosa [45] = experiment: Antimicrobial activity against Pseudomonas aeruginosa MTCC 1688 assessed as diameter of growth inhibition zone at 100 ug/ml after 18-24 hr by agar cup diffusion method; conditions: read-out: DIZ

Structure (SMILES): O=C(/C=C/c1ccccc1O)C1C(=O)NC(=S)NC1=O
- zone of inhibition at 100 µg/mL (Aspergillus clavatus [1]): 20 mm
- zone of inhibition at 250 µg/mL (Penicillium [2]): 23 mm
- zone of inhibition at 25 µg/mL (Aspergillus clavatus [3]): 18 mm
- zone of inhibition at 25 µg/mL (Penicillium [4]): 18 mm
- zone of inhibition at 50 µg/mL (Pseudomonas aeruginosa [5]): 13 mm
- zone of inhibition at 25 µg/mL (Candida albicans [6]): 17 mm
- zone of inhibition at 250 µg/mL (Streptococcus pyogenes [7]): 17 mm
- zone of inhibition at 250 µg/mL (Escherichia coli [8]): 17 mm
- MFC (Aspergillus clavatus [9]): > 1000 µg/mL
- MIC (Aspergillus clavatus [9]): > 1000 µg/mL
- MBC (Pseudomonas aeruginosa [10]): 250 µg/mL (≈ 861 µM)
- MIC (Pseudomonas aeruginosa [10]): 250 µg/mL (≈ 861 µM)
- zone of inhibition at 250 µg/mL (Staphylococcus aureus [11]): 19 mm
- zone of inhibition at 25 µg/mL (Staphylococcus aureus [12]): 11 mm
- zone of inhibition at 100 µg/mL (Streptococcus pyogenes [13]): 16 mm
- zone of inhibition at 50 µg/mL (Staphylococcus aureus [14]): 13 mm
- zone of inhibition at 25 µg/mL (Escherichia coli [15]): 13 mm
- zone of inhibition at 250 µg/mL (Aspergillus clavatus [16]): 22 mm
- zone of inhibition at 50 µg/mL (Klebsiella pneumoniae [17]): 13 mm
- MFC (Trichophyton rubrum [18]): > 1000 µg/mL
- MIC (Trichophyton rubrum [18]): > 1000 µg/mL
- zone of inhibition at 50 µg/mL (Penicillium [19]): 19 mm
- zone of inhibition at 50 µg/mL (Aspergillus clavatus [20]): 19 mm
- zone of inhibition at 250 µg/mL (Candida albicans [21]): 24 mm
- zone of inhibition at 50 µg/mL (Escherichia coli [22]): 15 mm
- zone of inhibition at 250 µg/mL (Klebsiella pneumoniae [23]): 17 mm
- MFC (Candida albicans [24]): > 1000 µg/mL
- MIC (Candida albicans [24]): 1000 µg/mL (≈ 3440 µM)
- zone of inhibition at 100 µg/mL (Klebsiella pneumoniae [25]): 15 mm
- zone of inhibition at 100 µg/mL (Penicillium [26]): 22 mm
- MBC (Escherichia coli [27]): 200 µg/mL (≈ 689 µM)
- MIC (Escherichia coli [27]): 125 µg/mL (≈ 431 µM)
- zone of inhibition at 100 µg/mL (Trichophyton rubrum [28]): 21 mm
- MBC (Klebsiella pneumoniae [29]): 250 µg/mL (≈ 861 µM)
- MIC (Klebsiella pneumoniae [29]): 200 µg/mL (≈ 689 µM)
- MBC (Staphylococcus aureus [30]): 500 µg/mL (≈ 1720 µM)
- MIC (Staphylococcus aureus [30]): 500 µg/mL (≈ 1720 µM)
- zone of inhibition at 25 µg/mL (Trichophyton rubrum [31]): 18 mm
- zone of inhibition at 100 µg/mL (Escherichia coli [32]): 16 mm
- MFC (Penicillium [33]): > 1000 µg/mL
- MIC (Penicillium [33]): > 1000 µg/mL
- zone of inhibition at 50 µg/mL (Streptococcus pyogenes [34]): 15 mm
- zone of inhibition at 25 µg/mL (Pseudomonas aeruginosa [35]): 11 mm
- zone of inhibition at 25 µg/mL (Klebsiella pneumoniae [36]): 12 mm
- zone of inhibition at 100 µg/mL (Candida albicans [37]): 22 mm
- zone of inhibition at 250 µg/mL (Trichophyton rubrum [38]): 22 mm
- zone of inhibition at 50 µg/mL (Candida albicans [39]): 19 mm
- MBC (Streptococcus pyogenes [40]): 200 µg/mL (≈ 689 µM)
- MIC (Streptococcus pyogenes [40]): 125 µg/mL (≈ 431 µM)
- zone of inhibition at 50 µg/mL (Trichophyton rubrum [41]): 21 mm
- zone of inhibition at 100 µg/mL (Staphylococcus aureus [42]): 17 mm
- zone of inhibition at 25 µg/mL (Streptococcus pyogenes [43]): 13 mm
- zone of inhibition at 250 µg/mL (Pseudomonas aeruginosa [44]): 19 mm
- zone of inhibition at 100 µg/mL (Pseudomonas aeruginosa [45]): 17 mm
